According to ChEMBL document CHEMBL1177794, “Broad spectrum alkynyl inhibitors of T315I Bcr-Abl” (Bioorg Med Chem Lett, 2010):
pEC50: −log10 of the molar value.

Columns and labels:
Type in all cases: functional, cell-based
BaF3 [1] = test: Antiproliferative activity against mouse BAF3 cells expressing wild type Bcr-Abl
BaF3 [2] = test: Antiproliferative activity against mouse BAF3 cells expressing Bcr-Abl T315I mutant
BaF3 [3] = test: Antiproliferative activity against mouse BAF3 cells

SMILES	pEC50 (BaF3 [1])	pEC50 (BaF3 [2])	pEC50 (BaF3 [3])
CCN1CCN(Cc2ccc(NC(=O)c3ccc(C)c(C#Cc4ccc(C(=O)NC)nc4)c3)cc2C(F)(F)F)CC1	7.39	5.59	5.40
CCN1CCN(Cc2ccc(NC(=O)c3ccc(C)c(C#Cc4cnccn4)c3)cc2C(F)(F)F)CC1	8.22	5.52	5.60
CCN1CCN(Cc2ccc(NC(=O)c3ccc(C)c(C#Cc4coc5ccccc45)c3)cc2C(F)(F)F)CC1	6.62	5.08	5.17
CCN1CCN(Cc2ccc(C(=O)Nc3ccc(C)c(C#Cc4cnc5[nH]ccc5c4)c3)cc2C(F)(F)F)CC1	7.15	5.58	5.10
CCN1CCN(Cc2ccc(NC(=O)c3ccc(C)c(C#Cc4cnc5[nH]cnc5c4)c3)cc2C(F)(F)F)CC1	> 9.00	7.85	7.22
CCN1CCN(Cc2ccc(NC(=O)c3ccc(C)c(C#Cc4cncnc4)c3)cc2C(F)(F)F)CC1	> 9.00	6.00	5.66
CCN1CCN(Cc2ccc(NC(=O)c3cccc(C#Cc4cnc5[nH]ccc5c4)c3)cc2C(F)(F)F)CC1	7.96	6.66	< 5.00
CCN1CCN(Cc2ccc(NC(=O)c3ccc(C)c(C#Cc4cnc5nccnc5c4)c3)cc2C(F)(F)F)CC1	7.43	5.26	5.48
Cc1cn(-c2cc(NC(=O)c3ccc(C)c(C#Cc4cnc5[nH]ccc5c4)c3)cc(C(F)(F)F)c2)cn1	7.43	6.33	< 5.00
Cc1cn(-c2cc(NC(=O)c3cccc(C#Cc4cnc5[nH]ccc5c4)c3)cc(C(F)(F)F)c2)cn1	7.82	6.52	5.55
CCN1CCN(Cc2ccc(NC(=O)c3ccc(C)c(C#Cc4ccc(NC(C)=O)nc4)c3)cc2C(F)(F)F)CC1	> 9.00	8.00	5.69
CCN1CCN(Cc2ccc(NC(=O)c3ccc(C)c(C#Cc4cnc5[nH]c(C)cc5c4)c3)cc2C(F)(F)F)CC1	7.59	6.25	6.00
CCN1CCN(Cc2ccc(NC(=O)c3ccc(C)c(C#Cc4ccc(NC(=O)C5CC5)nc4)c3)cc2C(F)(F)F)CC1	> 9.00	7.89	5.74
CCN1CCN(Cc2ccc(NC(=O)c3ccc(C)c(C#Cc4cnc(N)cn4)c3)cc2C(F)(F)F)CC1	> 9.00	6.78	6.07
